Measurements as given in patent US20250320193A1, “OXOISOINDOLINYL SUBSTITUTED PIPERIDINEDIONE DERIVATIVE AND USE THEREOF” (GLUETACS THERAPEUTICS (SHANGHAI) CO., LTD., priority 2022, published 2025).

Experiments:
[1] = biological target: GSPT1 (Homo sapiens (Human), UniProt P15170+Q96SW2); assay: Western blot, substrate protein expression in hPBMC: GSPT1; type: cell-based; details: hPBMC, compound 500 nM, 24 hours, Western blot
Experimental: (§1) The effect of the compounds of the present disclosure on the expression of target proteins in cells was detected using conventional Western blot analysis.
(§2) Human peripheral blood mononuclear cells (hPBMCs) at a density of 1×10^6 cells/mL were thawed according to the PBMC Recovery Protocol (Milecell Biotechnologies Inc, Shanghai). […] After 24 hours of compounds treatment, cells were harvested and lysed in RIPA protein lysate containing phosphatase inhibitors on ice for 30-60 min, followed by centrifugation. The supernatant was aspirated as the extracted total cell protein. The protein concentration of the supernatant was determined using the conventional BCA (Bicinchoninic Acid) assay. The supernatant was then mixed with 4× SDS sample loading buffer, denatured at 95° C. for 5 minutes, and then subjected to SDS-PAGE electrophoresis on a polyacrylamide gel. Proteins were then transferred to a nitrocellulose (NC) membrane, blocked at room temperature for 1-2 h, and processed for antibody incubation and detection according to the manufacturer's instructions (Cell Signaling Technology).
(§3) Half-Maximal Degradation Concentration value (the drug concentration required for degrading proteins by 50%, abbreviated as DC50) reads method: comparing the grayscale values of Western blot bands from drug-treated samples (protein degrader compounds) with those from blank (DMSO-treated) controls, and identifying the drug concentration range at which the grayscale value is half that of the DMSO-treated control bands.
(§4) DC50 values can be calculated using ImageJ software to measure grayscale values of Western blot bands from drug-treated samples. The relationship curve between drug concentration and grayscale values is fitted to estimate the drug concentration corresponding to half the grayscale value.
(§5) Target protein remaining (%) refers to the percentage of target protein remaining in hPBMC cells after treatment with protein degrader compounds.
(§6) Calculation method for protein remaining (%): Use ImageJ software to measure grayscale values of Western blot bands from drug (protein degrader)-treated samples. The grayscale value of drug-treated bands is divided by that of internal control protein bands, and the resulting quotient is normalized to obtain the relative percentage of remaining target protein after protein degrader treatment.
(§7) Target protein degradation rate (%)=100%-target protein remaining (%).

[2] = biological target: IKZF3 (Homo sapiens (Human), UniProt Q96SW2+Q9UKT9); assay: Western blot, substrate protein expression in hPBMC: IKZF3; type: cell-based; details: hPBMC, compound 500 nM, 24 hours, Western blot
Chain of IKZF3 (Q9UKT9 whole entry): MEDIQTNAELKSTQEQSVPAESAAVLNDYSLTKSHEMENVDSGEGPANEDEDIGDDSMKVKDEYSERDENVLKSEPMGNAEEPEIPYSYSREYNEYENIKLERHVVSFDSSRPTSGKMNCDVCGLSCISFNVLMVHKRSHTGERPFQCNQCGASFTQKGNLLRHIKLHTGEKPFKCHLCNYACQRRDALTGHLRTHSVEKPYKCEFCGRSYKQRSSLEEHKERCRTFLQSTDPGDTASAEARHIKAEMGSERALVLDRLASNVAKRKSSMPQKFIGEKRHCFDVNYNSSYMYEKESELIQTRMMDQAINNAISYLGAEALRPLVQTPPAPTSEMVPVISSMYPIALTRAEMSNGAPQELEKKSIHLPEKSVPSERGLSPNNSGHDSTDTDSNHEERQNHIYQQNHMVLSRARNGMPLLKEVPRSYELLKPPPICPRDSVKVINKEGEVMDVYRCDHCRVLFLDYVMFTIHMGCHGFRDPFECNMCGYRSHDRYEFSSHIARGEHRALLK
Chain of IKZF3 (Q96SW2 whole entry): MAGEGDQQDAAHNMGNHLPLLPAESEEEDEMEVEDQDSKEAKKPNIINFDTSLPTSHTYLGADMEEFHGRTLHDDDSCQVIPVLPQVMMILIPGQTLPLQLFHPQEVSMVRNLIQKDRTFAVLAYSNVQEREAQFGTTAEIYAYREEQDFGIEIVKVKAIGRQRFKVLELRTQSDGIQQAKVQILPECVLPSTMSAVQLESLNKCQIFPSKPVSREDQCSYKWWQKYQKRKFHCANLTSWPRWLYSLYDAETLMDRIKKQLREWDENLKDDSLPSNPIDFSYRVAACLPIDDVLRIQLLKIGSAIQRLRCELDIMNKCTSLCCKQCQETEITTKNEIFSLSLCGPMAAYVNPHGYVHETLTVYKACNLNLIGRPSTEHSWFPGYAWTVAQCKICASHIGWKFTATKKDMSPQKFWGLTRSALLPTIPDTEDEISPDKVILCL
Chain of IKZF3 (Q16531 whole entry partner): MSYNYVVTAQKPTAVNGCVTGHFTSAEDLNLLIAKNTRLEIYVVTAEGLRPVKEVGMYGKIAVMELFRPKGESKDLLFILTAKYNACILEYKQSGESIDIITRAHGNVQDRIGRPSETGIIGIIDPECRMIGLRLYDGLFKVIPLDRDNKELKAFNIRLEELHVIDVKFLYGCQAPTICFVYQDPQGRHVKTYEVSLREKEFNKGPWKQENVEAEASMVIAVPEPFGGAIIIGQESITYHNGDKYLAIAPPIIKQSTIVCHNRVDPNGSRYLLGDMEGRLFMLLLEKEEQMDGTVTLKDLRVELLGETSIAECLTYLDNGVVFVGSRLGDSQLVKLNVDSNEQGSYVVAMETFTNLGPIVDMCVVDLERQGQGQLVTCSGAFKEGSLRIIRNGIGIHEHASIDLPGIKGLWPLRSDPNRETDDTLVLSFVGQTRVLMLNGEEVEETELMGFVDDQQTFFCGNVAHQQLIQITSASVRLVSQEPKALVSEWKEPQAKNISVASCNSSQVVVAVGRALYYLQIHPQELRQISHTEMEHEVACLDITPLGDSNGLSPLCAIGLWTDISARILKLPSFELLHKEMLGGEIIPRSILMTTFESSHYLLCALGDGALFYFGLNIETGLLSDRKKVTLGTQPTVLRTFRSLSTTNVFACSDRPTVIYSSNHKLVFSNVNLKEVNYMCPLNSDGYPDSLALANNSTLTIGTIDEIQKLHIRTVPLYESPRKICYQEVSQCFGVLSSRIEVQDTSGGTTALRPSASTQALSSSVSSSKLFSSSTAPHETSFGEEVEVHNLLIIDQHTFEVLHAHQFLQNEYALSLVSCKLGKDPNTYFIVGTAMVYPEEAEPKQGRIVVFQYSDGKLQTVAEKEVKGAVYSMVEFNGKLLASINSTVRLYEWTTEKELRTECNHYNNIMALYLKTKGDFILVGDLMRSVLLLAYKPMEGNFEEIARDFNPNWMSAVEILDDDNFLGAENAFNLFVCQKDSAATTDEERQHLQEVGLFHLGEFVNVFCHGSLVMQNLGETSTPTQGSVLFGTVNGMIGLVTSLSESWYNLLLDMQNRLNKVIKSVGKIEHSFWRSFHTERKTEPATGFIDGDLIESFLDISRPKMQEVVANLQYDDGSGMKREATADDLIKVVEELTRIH
Experimental: as §1, §2, §3, §4, §5, §6, §7

[3] = biological target: IKZF1 (Homo sapiens (Human), UniProt Q13422+Q96SW2); assay: Western blot, substrate protein expression in hPBMC: IKZF1; type: cell-based; details: hPBMC, compound 500 nM, 24 hours, Western blot
Chain of IKZF1 (Q13422 whole entry): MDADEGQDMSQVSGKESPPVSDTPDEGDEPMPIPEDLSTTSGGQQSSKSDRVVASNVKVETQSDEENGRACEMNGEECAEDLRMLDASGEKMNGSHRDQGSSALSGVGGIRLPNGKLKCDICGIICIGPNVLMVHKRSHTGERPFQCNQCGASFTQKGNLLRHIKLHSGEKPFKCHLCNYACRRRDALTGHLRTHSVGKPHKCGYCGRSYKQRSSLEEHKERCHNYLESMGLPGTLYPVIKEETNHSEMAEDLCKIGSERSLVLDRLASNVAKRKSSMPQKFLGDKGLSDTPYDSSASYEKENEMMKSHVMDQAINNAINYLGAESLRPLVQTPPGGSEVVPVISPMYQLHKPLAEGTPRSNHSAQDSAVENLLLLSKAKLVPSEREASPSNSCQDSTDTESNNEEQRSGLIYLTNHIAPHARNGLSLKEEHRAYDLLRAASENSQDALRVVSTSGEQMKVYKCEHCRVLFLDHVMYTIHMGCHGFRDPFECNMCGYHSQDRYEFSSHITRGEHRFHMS
Chain of IKZF1 (Q96SW2 whole entry): as the sequence (Q96SW2 whole entry) above
Chain of IKZF1 (Q16531 whole entry partner): as the sequence (Q16531 whole entry partner) above
Experimental: as §1, §2, §3, §4, §5, §6, §7

[4] = biological target: human Cereblon WT GST-tagged protein (Homo sapiens (Human), UniProt Q96SW2); assay: CRBN-binding affinity, HTRF (CEREBLON BINDING kit, CISBIO); details: HTRF inhibitory activity
Chain of human Cereblon WT GST-tagged protein (Q96SW2 whole entry): as the sequence (Q96SW2 whole entry) above
Summary of the method: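 HTRF competition format: test compound displaces Thalidomide-Red from GST-tagged human Cereblon WT, detected with a Eu-labelled anti-GST antibody. Percent CRBN binding inhibition was derived from the 620 nm signal, normalized to solvent-control and protein-free blank wells.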

Chain of GSPT1 (P15170 whole entry): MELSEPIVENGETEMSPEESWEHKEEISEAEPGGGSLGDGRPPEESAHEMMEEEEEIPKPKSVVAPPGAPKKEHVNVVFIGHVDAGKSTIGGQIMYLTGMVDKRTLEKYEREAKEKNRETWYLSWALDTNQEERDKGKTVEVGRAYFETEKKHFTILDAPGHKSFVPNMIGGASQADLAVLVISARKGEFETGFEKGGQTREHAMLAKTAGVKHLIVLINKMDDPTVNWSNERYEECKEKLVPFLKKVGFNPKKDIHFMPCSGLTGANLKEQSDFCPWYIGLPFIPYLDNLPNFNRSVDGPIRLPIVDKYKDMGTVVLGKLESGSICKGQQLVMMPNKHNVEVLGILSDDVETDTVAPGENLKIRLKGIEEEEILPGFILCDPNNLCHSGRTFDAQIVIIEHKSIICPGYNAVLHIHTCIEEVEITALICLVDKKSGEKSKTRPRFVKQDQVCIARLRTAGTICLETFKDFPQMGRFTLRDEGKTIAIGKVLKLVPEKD
Chain of GSPT1 (Q96SW2 whole entry): as the sequence (Q96SW2 whole entry) above
Chain of GSPT1 (Q16531 whole entry partner): as the sequence (Q16531 whole entry partner) above

**Q.** For `O=C1CCC(N2Cc3cc(CN4CCN(C(c5ccc(F)cc5)c5ccc(F)cc5)CC4)cc(F)c3C2=O)C(=O)N1` (stereo not shown) [GT-03565, 3-(5-((4-(bis(4-fluorophenyl)methyl)piperazin-1-yl)methyl)-7-fluoro-1-oxoisoindolin-2-yl)piperidine-2,6-dione], which “substrate protein remaining % GSPT1” value [1] is on record?
**A.** A (A represents 0% ≤ substrate protein remaining % ≤ 50%)

**Q.** What about the “substrate protein remaining % IKZF3” value [2] of the same molecule?
**A.** B (B represents substrate protein remaining % > 50%)

**Q.** And the “substrate protein remaining % IKZF1” value [3]?
**A.** B (B represents substrate protein remaining % > 50%)

**Q.** What about the IC50 [4] of the same molecule?
**A.** < 500 nM

**Q.** `O=C1CCC(N2C(=O)c3ccc(CN4CCN(C(c5ccccc5F)c5ccccc5F)CC4)cc3C2=O)C(=O)N1` (stereo not shown) [GT-06088, 5-((4-(bis(2-fluorophenyl)methyl)piperazin-1-yl)methyl)-2-(2,6-dioxopiperidin-3-yl) isoindoline-1,3-dione] was tested. Which “substrate protein remaining % GSPT1” value [1] did it give?
**A.** A (A represents 0% ≤ substrate protein remaining % ≤ 50%)

**Q.** And the “substrate protein remaining % IKZF3” value [2]?
**A.** B (B represents substrate protein remaining % > 50%)

**Q.** And the “substrate protein remaining % IKZF1” value [3]?
**A.** B (B represents substrate protein remaining % > 50%)

**Q.** How did the “substrate protein remaining % GSPT1” value [1] turn out when `C[C@@H]1CN(C(c2ccccc2)c2ccccc2)CCN1C(=O)c1ccc2c(c1)C(=O)N(C1CCC(=O)NC1=O)C2=O` (stereo partly drawn) [GT-06094, 5-((R)-4-benzhydryl-2-methylpiperazine-1-carbonyl)-2-(2,6-dioxopiperidin-3-yl) isoindoline-1,3-dione] was run?
**A.** A (A represents 0% ≤ substrate protein remaining % ≤ 50%)

**Q.** And the “substrate protein remaining % IKZF3” value [2]?
**A.** B (B represents substrate protein remaining % > 50%)

**Q.** And the “substrate protein remaining % IKZF1” value [3]?
**A.** B (B represents substrate protein remaining % > 50%)

**Q.** For `O=C1CCC(N2C(=O)c3ccc(CN4CCN(C(c5ccccc5)c5ccccc5)CC4C(F)(F)F)cc3C2=O)C(=O)N1` (stereo not shown) [GT-06099, 5-((4-benzhydryl-2-(trifluoromethyl)piperazin-1-yl)methyl)-2-(2,6-dioxopiperidin-3-yl) isoindoline-1,3-dione], which “substrate protein remaining % GSPT1” value [1] is on record?
**A.** A (A represents 0% ≤ substrate protein remaining % ≤ 50%)

**Q.** And the “substrate protein remaining % IKZF3” value [2]?
**A.** B (B represents substrate protein remaining % > 50%)

**Q.** What about the “substrate protein remaining % IKZF1” value [3] of the same molecule?
**A.** B (B represents substrate protein remaining % > 50%)

**Q.** For `O=C1CCC(N2C(=O)c3ccc(CN4CCN(C(c5ccccc5)c5ccncc5)CC4)cc3C2=O)C(=O)N1` (stereo not shown) [GT-06115, 2-(2,6-dioxopiperidin-3-yl)-5-((4-(phenyl(pyridin-4-yl)methyl)piperazin-1-yl)methyl) isoindoline-1,3-dione], which “substrate protein remaining % GSPT1” value [1] is on record?
**A.** A (A represents 0% ≤ substrate protein remaining % ≤ 50%)

**Q.** And the “substrate protein remaining % IKZF3” value [2]?
**A.** B (B represents substrate protein remaining % > 50%)

**Q.** And the “substrate protein remaining % IKZF1” value [3]?
**A.** B (B represents substrate protein remaining % > 50%)

**Q.** Which results are given for `O=C1CCC(N2Cc3c(ccc(CN4CCN(C(c5ccc(C(F)(F)F)cc5)c5ccc(C(F)(F)F)cc5)CC4)c3F)C2=O)C(=O)N1` (stereo not shown) [GT-06200, 3-(5-((4-(bis(4-(trifluoromethyl)phenyl)methyl)piperazin-1-yl)methyl)-4-fluoro-1-oxoisoindolin-2-yl)piperidine-2,6-dione]?
**A.** substrate protein remaining % GSPT1 [1]: A (A represents 0% ≤ substrate protein remaining % ≤ 50%); substrate protein remaining % IKZF3 [2]: A (A represents 0% ≤ substrate protein remaining % ≤ 50%); substrate protein remaining % IKZF1 [3]: B (B represents substrate protein remaining % > 50%)

**Q.** What does the source list for `O=C1CCC(N2Cc3cc(CN4CCN(C(c5ccc(C(F)(F)F)cc5)c5ccc(C(F)(F)F)cc5)CC4)c(F)cc3C2=O)C(=O)N1` (stereo not shown) [GT-06201, 3-(5-((4-(bis(4-(trifluoromethyl)phenyl)methyl)piperazin-1-yl)methyl)-6-fluoro-1-oxoisoindolin-2-yl)piperidine-2,6-dione]?
**A.** substrate protein remaining % GSPT1 [1]: A (A represents 0% ≤ substrate protein remaining % ≤ 50%); substrate protein remaining % IKZF3 [2]: A (A represents 0% ≤ substrate protein remaining % ≤ 50%); substrate protein remaining % IKZF1 [3]: B (B represents substrate protein remaining % > 50%)

**Q.** For `O=C1CCC(N2C(=O)c3ccc(CN4CCN(C(c5ccc(C(F)(F)F)cc5)c5ccc(C(F)(F)F)cc5)CC4)cc3C2=O)C(=O)N1` (stereo not shown) [GT-06203, 5-((4-(bis(4-(trifluoromethyl)phenyl)methyl)piperazin-1-yl)methyl)-2-(2,6-dioxopiperidin-3-yl) isoindoline-1,3-dione], which “substrate protein remaining % GSPT1” value [1] is on record?
**A.** A (A represents 0% ≤ substrate protein remaining % ≤ 50%)

**Q.** What about the “substrate protein remaining % IKZF3” value [2] of the same molecule?
**A.** A (A represents 0% ≤ substrate protein remaining % ≤ 50%)

**Q.** What about the “substrate protein remaining % IKZF1” value [3] of the same molecule?
**A.** B (B represents substrate protein remaining % > 50%)

**Q.** What does the source list for `O=C1CCC(N2C(=O)c3ccc(C(=O)N4CCN(C(c5ccc(C(F)(F)F)cc5)c5ccc(C(F)(F)F)cc5)CC4)cc3C2=O)C(=O)N1` (stereo not shown) [GT-06217, 5-(4-(bis(4-(trifluoromethyl)phenyl)methyl)piperazine-1-carbonyl)-2-(2,6-dioxopiperidin-3-yl) isoindoline-1,3-dione]?
**A.** substrate protein remaining % GSPT1 [1]: A (A represents 0% ≤ substrate protein remaining % ≤ 50%); substrate protein remaining % IKZF3 [2]: B (B represents substrate protein remaining % > 50%); substrate protein remaining % IKZF1 [3]: B (B represents substrate protein remaining % > 50%)

**Q.** Which “substrate protein remaining % GSPT1” value [1] does the source give for `CC1(C)CN(C(=O)c2ccc3c(c2)C(=O)N(C2CCC(=O)NC2=O)C3=O)CCN1C(c1ccccc1)c1ccccc1` (stereo not shown) [GT-06278, 5-(4-benzhydryl-3,3-dimethylpiperazine-1-carbonyl)-2-(2,6-dioxopiperidin-3-yl) isoindoline-1,3-dione] here?
**A.** A (A represents 0% ≤ substrate protein remaining % ≤ 50%)

**Q.** And the “substrate protein remaining % IKZF3” value [2]?
**A.** B (B represents substrate protein remaining % > 50%)

**Q.** What about the “substrate protein remaining % IKZF1” value [3] of the same molecule?
**A.** B (B represents substrate protein remaining % > 50%)

**Q.** What does the source list for `O=C1CCC(N2Cc3cc(CN4CCN(C(c5ccc(OCc6ccccc6)cc5)c5ccc(OCc6ccccc6)cc5)CC4)ccc3C2=O)C(=O)N1` (stereo not shown) [GT-06424, 3-(5-((4-(bis(4-(benzyloxy)phenyl)methyl)piperazin-1-yl)methyl)-1-oxoisoindolin-2-yl)piperidine-2,6-dione]?
**A.** substrate protein remaining % GSPT1 [1]: A (A represents 0% ≤ substrate protein remaining % ≤ 50%); substrate protein remaining % IKZF3 [2]: A (A represents 0% ≤ substrate protein remaining % ≤ 50%); substrate protein remaining % IKZF1 [3]: B (B represents substrate protein remaining % > 50%)

**Q.** `O=C1CCC(N2C(=O)c3ccc(CN4CCN(C(c5ccc(OCc6ccccc6)cc5)c5ccc(OCc6ccccc6)cc5)CC4)cc3C2=O)C(=O)N1` (stereo not shown) [GT-06425, 5-((4-(bis(4-(benzyloxy)phenyl)methyl)piperazin-1-yl)methyl)-2-(2,6-dioxopiperidin-3-yl) isoindoline-1,3-dione] was tested. Which “substrate protein remaining % GSPT1” value [1] did it give?
**A.** A (A represents 0% ≤ substrate protein remaining % ≤ 50%)

**Q.** And the “substrate protein remaining % IKZF3” value [2]?
**A.** A (A represents 0% ≤ substrate protein remaining % ≤ 50%)

**Q.** What about the “substrate protein remaining % IKZF1” value [3] of the same molecule?
**A.** B (B represents substrate protein remaining % > 50%)

**Q.** For `O=C1CCC(N2C(=O)c3ccc(C(=O)N4CCN(C(c5ccc(OCc6ccccc6)cc5)c5ccc(OCc6ccccc6)cc5)CC4)cc3C2=O)C(=O)N1` (stereo not shown) [GT-06558, 5-(4-(bis(4-(benzyloxy)phenyl)methyl)piperazine-1-carbonyl)-2-(2,6-dioxopiperidin-3-yl) isoindoline-1,3-dione], which “substrate protein remaining % GSPT1” value [1] is on record?
**A.** A (A represents 0% ≤ substrate protein remaining % ≤ 50%)

**Q.** What about the “substrate protein remaining % IKZF3” value [2] of the same molecule?
**A.** B (B represents substrate protein remaining % > 50%)

**Q.** What about the “substrate protein remaining % IKZF1” value [3] of the same molecule?
**A.** A (A represents 0% ≤ substrate protein remaining % ≤ 50%)

**Q.** For `O=C1CCC(N2C(=O)c3ccc(C(=O)N4CCN(C(c5cc(F)cc(F)c5)c5cc(F)cc(F)c5)CC4)cc3C2=O)C(=O)N1` (stereo not shown) [GT-06598, 5-(4-(bis(3,5-difluorophenyl)methyl)piperazine-1-carbonyl)-2-(2,6-dioxopiperidin-3-yl) isoindoline-1,3-dione], which “substrate protein remaining % GSPT1” value [1] is on record?
**A.** A (A represents 0% ≤ substrate protein remaining % ≤ 50%)

**Q.** And the “substrate protein remaining % IKZF3” value [2]?
**A.** B (B represents substrate protein remaining % > 50%)

**Q.** What about the “substrate protein remaining % IKZF1” value [3] of the same molecule?
**A.** B (B represents substrate protein remaining % > 50%)

**Q.** What does the source list for `O=C1CCC(N2C(=O)c3ccc(CN4CCN(C(c5ccccc5)c5ccc(Br)cc5)CC4)cc3C2=O)C(=O)N1` (stereo not shown) [GT-06639, 5-((4-((4-bromophenyl) (phenyl)methyl)piperazin-1-yl)methyl)-2-(2,6-dioxopiperidin-3-yl) isoindoline-1,3-dione]?
**A.** substrate protein remaining % GSPT1 [1]: A (A represents 0% ≤ substrate protein remaining % ≤ 50%); substrate protein remaining % IKZF3 [2]: A (A represents 0% ≤ substrate protein remaining % ≤ 50%); substrate protein remaining % IKZF1 [3]: A (A represents 0% ≤ substrate protein remaining % ≤ 50%)
